Patent US12410179B2, “Modulators of TNF alpha activity and uses thereof” (RayThera, Inc., priority 2023, dated 2025)
Where two headings read alike, the source gives them in different places.

Target: TNFα (Homo sapiens, UniProt P01375)
Experiment: HEK-Blue hTNFα reporter assay
Assay type: cell-based
Design: purchased R&D biosystem (R&D Systems) 210-TA-020/CF
Conditions: HEK-Blue hTNFα reporter cells; for Emax: read-out: TNFα reporter, Emax
Source text: Stimulation of HEK293 cells by TNFα leads to activation of the NF-κB pathway. The potency of compounds was examined in HEK-Blue™ hTNFα reporter cells (Invivogen, Cat #hkb-tnfdmyd). HEK-Blue™ TNFα cells were generated by stable transfection of HEK293 cell line with a SEAP reporter gene under the control of the […] minimal promoter fused to NF-κB binding sites. Stimulation of HEK-Blue™ TNFα cells with TNFα triggers the activation of the NF-κB-inducible promoter and the production of SEAP. Levels of SEAP in the supernatant can be easily determined using QUANTI-Blue™ Solution (Invivogen, cat #rep-qbs) by reading the OD at 620-655 nm.
HEK-Blue™ TNFα cells were cultured in DMEM supplemented with 10% FBS, 100p/mL penicillin, 100 μg/mL streptomycin, 100 μg/mL normocin, 1 μg/mL puromycin, and 100 μg/mL zeocin. The culture was maintained in culture incubator with 5% CO2 at 37° C. When used for assay, the cells were gently rinsed twice with pre-warmed phosphate buffered saline (PBS) and detached in presence of PBS by tapping the flask or by using a cell scraper. The cells were spun to remove PBS and resuspended in fresh, pre-warmed test medium (DMEM supplemented with 10% FBS, 100p/mL penicillin, and 100 μg/mL streptomycin). A serial dilution of work solution of tested compound was made in DMSO with 1000× of final concentration, and 40 nL of compound DMSO solution was transferred into 384-well plates (Corning 3764) by Echo, and incubated with 10 μL of recombinant hTNFα (R&D biosystem, Cat #210-TA-020/CF) for 1 h at 37° C. The compound/hTNFα mixture well received 30 μL HEK-Blue™ TNFα cell suspension at 10000 cells/well, and then incubated at 37° C. with 5% CO2 for 24 h. The final concentration of hTNFα is […]. After incubation, 5 μL of induced cell supernatant was transferred to a new 384-well plate well (Coring 3764) to mix with 45 μL of QUANTI-Blue Solution. After 1 h incubation at 37° C., the plate was read using a spectrophotometer at 620 nm.
The percentage of inhibition was calculated by the following formula: % inhibition=(positive control−Sample)/(positive control−negative control)*100 • Positive control: OD620 reading of cells with hTNFα stimulation. • Negative control: OD620 reading of cells without hTNFα stimulation. • Sample: OD620 reading of cells with compound at specific concentration and hTNFα stimulation
The % inhibition was plotted against compound concentration in logarithmic scale and the IC50 was rendered using 4-parameter nonlinear regression (GraphPad Prism).

[1] = SEAP readout, read-out: IC50 Range

TNFα, sequence (P01375 77-233 limits assumed): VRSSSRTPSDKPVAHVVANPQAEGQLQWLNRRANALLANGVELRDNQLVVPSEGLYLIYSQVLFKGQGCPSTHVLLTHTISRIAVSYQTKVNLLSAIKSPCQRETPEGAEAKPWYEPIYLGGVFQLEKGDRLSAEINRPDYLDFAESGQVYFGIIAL

IC50 [1]	Emax	IC50 (read-out: TNFα reporter, IC50)	Compound
< 25 nM	–	–	CN1C(=O)c2cccc(OC(F)F)c2[C@H]2C[C@@H]1c1nn3ccc(C4=CCC(C(C)(C)O)OC4)cc3c12 (stereo in doubt) [Example 318, (7R,14S)-1-(difluoromethoxy)-12-((R)-6-(2-hydroxypropan-2-yl)-5,6-dihydro-2H-pyran-3-yl)-6-methyl-6,7-dihydro-7,14-methanobenzo[c]pyrido[1′,2′:1,5]pyrazolo[4,3-f]azocin-5 (14H)-one]
< 25 nM	–	–	CN1C(=O)c2cccc(OC(F)F)c2[C@H]2C[C@@H]1c1nn3ccc(C4=CCC(C(C)(C)O)OC4)cc3c12 (stereo in doubt) [Example 319, (7R,14S)-1-(difluoromethoxy)-12-((S)-6-(2-hydroxypropan-2-yl)-5,6-dihydro-2H-pyran-3-yl)-6-methyl-6,7-dihydro-7,14-methanobenzo[c]pyrido[1′,2′:1,5]pyrazolo[4,3-f]azocin-5 (14H)-one]
–	85%	4.7 nM	CN1C(=O)c2cccc(OC(F)F)c2[C@H]2C[C@@H]1c1nc3ccc(-c4cnc([C@]5(N)C[C@@](C)(O)C5)c(F)c4)cc3n12 [Comp. Ex #2, reference compound]
–	70%	8.2 nM	CN1C(=O)c2cccc(OC(F)F)c2[C@H]2C[C@@H]1c1nc3ccc(-c4cnc(C5(O)CCOCC5)nc4)cc3n12 [Comp. Ex #3, reference compound]
–	83%	16.1 nM	CN1C(=O)c2cccc(OC(F)F)c2[C@H]2C[C@@H]1c1nc3ccc(-c4cnc([C@]5(N)C[C@@](C)(C#N)C5)nc4)cc3n12 [Comp. Ex #5, reference compound]
–	82%	5.2 nM	CN1C(=O)c2cccc(OC(F)F)c2[C@H]2C[C@@H]1c1nc3ccc(-c4cnc([C@]5(O)C[C@@](C)(O)C5)nc4)cc3n12 [Comp. Ex #6, reference compound]
–	92%	4.2 nM	CN1C(=O)c2cccc(OC(F)F)c2[C@H]2C[C@@H]1c1nc3ccc(-c4cnc([C@]5(N)C[C@@](C)(CO)C5)nc4)cc3n12 [Comp. Ex #7, reference compound]
–	80%	5.3 nM	CN1C(=O)c2cccc(OC(F)F)c2[C@H]2C[C@@H]1c1nc3ccc(-c4cnc([C@]5(N)C[C@@](C)(C#N)C5)c(F)c4)cc3n12 [Comp. Ex #8, reference compound]
25 to 100 nM	–	–	CN1C(=O)c2cccc(OC(F)F)c2C2CC1c1nn3ccc(-c4cnc(C5(N)CCC5)nc4)nc3c12 (centres unmarked) [Example 1, 12-(2-(1-aminocyclobutyl)pyrimidin-5-yl)-1-(difluoromethoxy)-6-methyl-6,7-dihydro-7,14-methanobenzo[c]pyrimido[1′,2′:1,5]pyrazolo[4,3-f]azocin-5 (14H)-one]
100 to 1000 nM	–	–	CN1C(=O)c2cccc(OC(F)F)c2[C@@H]2C[C@H]1c1nn3ccc(-c4cnc(C5(N)CCC5)nc4)nc3c12 [Example 2, (7S,14R)-12-(2-(1-aminocyclobutyl)pyrimidin-5-yl)-1-(difluoromethoxy)-6-methyl-6,7-dihydro-7,14-methanobenzo[c]pyrimido[1′,2′:1,5]pyrazolo[4,3-f]azocin-5 (14H)-one]
< 25 nM	–	–	CN1C(=O)c2cccc(OC(F)F)c2[C@H]2C[C@@H]1c1nn3ccc(-c4cnc(C5(N)CCC5)nc4)nc3c12 [Example 3, (7R,14S)-12-(2-(1-aminocyclobutyl)pyrimidin-5-yl)-1-(difluoromethoxy)-6-methyl-6,7-dihydro-7,14-methanobenzo[c]pyrimido[1′,2′:1,5]pyrazolo[4,3-f]azocin-5 (14H)-one]
< 25 nM	–	–	CN1C(=O)c2cccc(OC(F)F)c2[C@H]2C[C@@H]1c1nn3ccc(-c4cnc(C5(O)CC(C)(C#N)C5)nc4)nc3c12 (stereo partly drawn) [Example 4, (1R,3s)-3-(5-((7R,14S)-1-(difluoromethoxy)-6-methyl-5-oxo-5,6,7,14-tetrahydro-7,14-methanobenzo[c]pyrimido[1′,2′:1,5]pyrazolo[4,3-f]azocin-12-yl)pyrimidin-2-yl)-3-hydroxy-1-methylcyclobutane-1-carbonitrile]
< 25 nM	–	–	CN1C(=O)c2cccc(OC(F)F)c2[C@H]2C[C@@H]1c1nn3ccc(-c4cnc([C@]5(C#N)C[C@@](C)(O)C5)nc4)nc3c12 [Example 5, (1r,3S)-1-(5-((7R,14S)-1-(difluoromethoxy)-6-methyl-5-oxo-5,6,7,14-tetrahydro-7,14-methanobenzo[c]pyrimido[1′,2′:1,5]pyrazolo[4,3-f]azocin-12-yl)pyrimidin-2-yl)-3-hydroxy-3-methylcyclobutane-1-carbonitrile]
< 25 nM	–	–	CN1C(=O)c2cccc(OC(F)F)c2[C@H]2C[C@@H]1c1nn3ccc(-c4cnc(C5(N)CC5)nc4)nc3c12 [Example 6, (7R,14S)-12-(2-(1-aminocyclopropyl)pyrimidin-5-yl)-1-(difluoromethoxy)-6-methyl-6,7-dihydro-7,14-methanobenzo[c]pyrimido[1′,2′:1,5]pyrazolo[4,3-f]azocin-5 (14H)-one]
< 25 nM	–	–	CN1C(=O)c2cccc(OC(F)F)c2[C@H]2C[C@@H]1c1nn3ccc(-c4cnc([C@]5(N)C[C@@](C)(C#N)C5)nc4)nc3c12 [Example 7, (1R,3s)-3-amino-3-(5-((7R,14S)-1-(difluoromethoxy)-6-methyl-5-oxo-5,6,7,14-tetrahydro-7,14-methanobenzo[c]pyrimido[1′,2′:1,5]pyrazolo[4,3-f]azocin-12-yl)pyrimidin-2-yl)-1-methylcyclobutane-1-carbonitrile]
25 to 100 nM	–	–	CN1C(=O)c2cccc(OC(F)F)c2[C@H]2C[C@@H]1c1nn3ccc(C4=CCC(C(C)(C)O)CC4)nc3c12 (stereo partly drawn) [Example 8, (7R,14S)-1-(difluoromethoxy)-12-(4-(2-hydroxypropan-2-yl)cyclohex-1-en-1-yl)-6-methyl-6,7-dihydro-7,14-methanobenzo[c]pyrimido[1′,2′:1,5]pyrazolo[4,3-f]azocin-5 (14H)-one]
< 25 nM	–	–	CN1C(=O)c2cccc(OC(F)F)c2[C@H]2C[C@@H]1c1nn3ccc(-c4cnc([C@]5(N)C[C@@](C)(O)C5)nc4)nc3c12 [Example 9, (7R,14S)-12-(2-((1s,3R)-1-amino-3-hydroxy-3-methylcyclobutyl)pyrimidin-5-yl)-1-(difluoromethoxy)-6-methyl-6,7-dihydro-7,14-methanobenzo[c]pyrimido[1′,2′:1,5]pyrazolo[4,3-f]azocin-5 (14H)-one]
< 25 nM	93%	12.7 nM	CN1C(=O)c2cccc(OC(F)F)c2[C@H]2C[C@@H]1c1nn3ccc(-c4cnc([C@]5(N)C[C@@](C)(CO)C5)nc4)nc3c12 [Example 10, (7R,14S)-12-(2-((1s,3R)-1-amino-3-(hydroxymethyl)-3-methylcyclobutyl)pyrimidin-5-yl)-1-(difluoromethoxy)-6-methyl-6,7-dihydro-7,14-methanobenzo[c]pyrimido[1′,2′:1,5]pyrazolo[4,3-f]azocin-5 (14H)-one]
25 to 100 nM	–	–	CN1C(=O)c2cccc(OC(F)F)c2[C@H]2C[C@@H]1c1nn3ccc(-c4cnc(C(C)(C)O)nc4)nc3c12 [Example 11, (7R,14S)-1-(difluoromethoxy)-12-(2-(2-hydroxypropan-2-yl)pyrimidin-5-yl)-6-methyl-6,7-dihydro-7,14-methanobenzo[c]pyrimido[1′,2′:1,5]pyrazolo[4,3-f]azocin-5 (14H)-one]
25 to 100 nM	–	–	CN1C(=O)c2cccc(OC(F)F)c2[C@H]2C[C@@H]1c1nn3ccc(-c4cnc(C5(O)CCOC5)nc4)nc3c12 (stereo partly drawn) [Example 12, (7R,14S)-1-(difluoromethoxy)-12-(2-(3-hydroxytetrahydrofuran-3-yl)pyrimidin-5-yl)-6-methyl-6,7-dihydro-7,14-methanobenzo[c]pyrimido[1′,2′:1,5]pyrazolo[4,3-f]azocin-5 (14H)-one]
< 25 nM	–	–	CN1C(=O)c2cccc(OC(F)F)c2[C@H]2C[C@@H]1c1nn3ccc(-c4ccc(P(C)(C)=O)nc4)nc3c12 [Example 13, (7R,14S)-1-(difluoromethoxy)-12-(6-(dimethylphosphoryl)pyridin-3-yl)-6-methyl-6,7-dihydro-7,14-methanobenzo[c]pyrimido[1′,2′:1,5]pyrazolo[4,3-f]azocin-5 (14H)-one]
